Source: ChEMBL document CHEMBL1201862, “PubChem BioAssay data set” (2004)
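In this assay, cells in 96-well plates receive the compound at five concentrations for 48 hours. Endpoints are linearly interpolated between the surrounding concentrations. GI50 is the concentration that inhibits growth by half.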 The source made the active and inactive calls. No stated cut-off is given here; in the data, active = GI50 up to about 1.1 µM and inactive = higher.

Legend:
Assay in all cases: NCI anticancer screen, dose series, 48 h
Hs-578T = tested on: Hs-578T
SN12C = tested on: SN12C
BT-549 = tested on: BT-549
MDA-MB-231 = tested on: MDA-MB-231
HOP-62 = tested on: HOP-62
HCC 2998 = tested on: HCC 2998
UACC-257 = tested on: UACC-257
T47D = tested on: T47D
A498 = tested on: A498
M14 = tested on: M14
K562 = tested on: K562
HCT-116 = tested on: HCT-116
NCI-H23 = tested on: NCI-H23
SF-268 = tested on: SF-268
HT-29 = tested on: HT-29
COLO 205 = tested on: COLO 205
MCF7 = tested on: MCF7
LOX IMVI = tested on: LOX IMVI
786-0 = tested on: 786-0
CAKI-1 = tested on: CAKI-1
SW-620 = tested on: SW-620
MOLT-4 = tested on: MOLT-4
NCI-H522 = tested on: NCI-H522
NCI-H460 = tested on: NCI-H460
MDA-N = tested on: MDA-N
HCT-15 = tested on: HCT-15
TK-10 = tested on: TK-10
SK-MEL-28 = tested on: SK-MEL-28
U-251 = tested on: U-251
HOP-92 = tested on: HOP-92
Malme-3M = tested on: Malme-3M
RXF 393 = tested on: RXF 393
UO-31 = tested on: UO-31
MDA-MB-435 = tested on: MDA-MB-435
SF-539 = tested on: SF-539
SK-MEL-5 = tested on: SK-MEL-5
SK-MEL-2 = tested on: SK-MEL-2
SF-295 = tested on: SF-295
PC-3 = tested on: PC-3
SNB-75 = tested on: SNB-75
SNB-19 = tested on: SNB-19
SK-OV-3 = tested on: SK-OV-3
HL-60 = tested on: HL-60
EKVX = tested on: EKVX
OVCAR-8 = tested on: OVCAR-8
OVCAR-3 = tested on: OVCAR-3
DU-145 = tested on: DU-145
A549 = tested on: A549
CCRF-CEM = tested on: CCRF-CEM
NCI/ADR-RES = tested on: NCI/ADR-RES
UACC-62 = tested on: UACC-62
OVCAR-5 = tested on: OVCAR-5
KM12 = tested on: KM12
SR = tested on: SR
ACHN = tested on: ACHN
OVCAR-4 = tested on: OVCAR-4
RPMI-8226 = tested on: RPMI-8226
IGROV-1 = tested on: IGROV-1
NCI-H226 = tested on: NCI-H226

CC[C@@]12C=CC(=S)N(CCSc3ccccc3)[C@@H]1c1c(n(S(=O)(=O)c3ccc(OC)cc3)c3ccccc13)CC2
GI50 (Hs-578T): > 100 µM (inactive) | GI50 (SN12C): > 100 µM (inactive) | GI50 (BT-549): > 100 µM (inactive) | GI50 (MDA-MB-231): > 100 µM (inactive) | GI50 (HOP-62): > 100 µM (inactive) | GI50 (HCC 2998): > 100 µM (inactive) | GI50 (UACC-257): > 100 µM (inactive) | GI50 (T47D): > 100 µM (inactive) | GI50 (A498): > 100 µM (inactive) | GI50 (M14): > 100 µM (inactive) | GI50 (K562): > 100 µM (inactive) | GI50 (HCT-116): > 100 µM (inactive) | GI50 (NCI-H23): > 100 µM (inactive) | GI50 (SF-268): > 100 µM (inactive) | GI50 (HT-29): > 100 µM (inactive) | GI50 (COLO 205): > 100 µM (inactive) | GI50 (MCF7): > 100 µM (inactive) | GI50 (LOX IMVI): > 100 µM (inactive) | GI50 (786-0): > 100 µM (inactive) | GI50 (CAKI-1): > 100 µM (inactive) | GI50 (SW-620): > 100 µM (inactive) | GI50 (MOLT-4): > 100 µM (inactive) | GI50 (NCI-H522): > 100 µM (inactive) | GI50 (NCI-H460): > 100 µM (inactive) | GI50 (MDA-N): > 100 µM (inactive) | GI50 (HCT-15): > 100 µM | GI50 (TK-10): > 100 µM (inactive) | GI50 (SK-MEL-28): > 100 µM (inactive) | GI50 (U-251): > 100 µM (inactive) | GI50 (HOP-92): > 100 µM (inactive) | GI50 (Malme-3M): > 100 µM (inactive) | GI50 (RXF 393): 16.6 µM (inactive) | GI50 (UO-31): > 100 µM (inactive) | GI50 (MDA-MB-435): > 100 µM (inactive) | GI50 (SF-539): > 100 µM (inactive) | GI50 (SK-MEL-5): > 100 µM (inactive) | GI50 (SK-MEL-2): > 100 µM (inactive) | GI50 (SF-295): > 100 µM (inactive) | GI50 (PC-3): > 100 µM (inactive) | GI50 (SNB-75): > 100 µM (inactive) | GI50 (SNB-19): > 100 µM (inactive) | GI50 (SK-OV-3): > 100 µM (inactive) | GI50 (HL-60): > 100 µM (inactive) | GI50 (EKVX): > 100 µM (inactive) | GI50 (OVCAR-8): > 100 µM (inactive) | GI50 (OVCAR-3): > 100 µM (inactive) | GI50 (DU-145): > 100 µM (inactive) | GI50 (A549): > 100 µM (inactive) | GI50 (CCRF-CEM): > 100 µM (inactive) | GI50 (NCI/ADR-RES): > 100 µM (inactive) | GI50 (UACC-62): > 100 µM (inactive) | GI50 (OVCAR-5): > 100 µM (inactive) | GI50 (KM12): > 100 µM (inactive)

Cc1cccc(C)c1NC(=S)NC=C1C(=O)c2ccccc2C1=O
GI50 (Hs-578T): 10.5 µM (inactive) | GI50 (SN12C): 9.42 µM (inactive) | GI50 (BT-549): 4.84 µM (inactive) | GI50 (MDA-MB-231): 19.5 µM (inactive) | GI50 (HOP-62): 23.2 µM (inactive) | GI50 (HCC 2998): 5.86 µM (inactive) | GI50 (UACC-257): 12.4 µM (inactive) | GI50 (T47D): 6.17 µM (inactive) | GI50 (M14): 17.5 µM (inactive) | GI50 (K562): 3.61 µM (inactive) | GI50 (HCT-116): 4.62 µM (inactive) | GI50 (SR): 2.22 µM (inactive) | GI50 (NCI-H23): 16.6 µM (inactive) | GI50 (ACHN): 5.19 µM (inactive) | GI50 (SF-268): 7.52 µM (inactive) | GI50 (OVCAR-4): 10.5 µM (inactive) | GI50 (HT-29): 5.78 µM (inactive) | GI50 (COLO 205): 3.52 µM (inactive) | GI50 (MCF7): 4.59 µM (inactive) | GI50 (LOX IMVI): 19.1 µM (inactive) | GI50 (786-0): 13.1 µM (inactive) | GI50 (CAKI-1): 17.8 µM (inactive) | GI50 (SW-620): 6.85 µM (inactive) | GI50 (MOLT-4): 0.75 µM (active) | GI50 (NCI-H522): 3.41 µM (inactive) | GI50 (NCI-H460): 3.98 µM (inactive) | GI50 (MDA-N): 9.14 µM (inactive) | GI50 (HCT-15): 7.35 µM | GI50 (TK-10): 6.73 µM (inactive) | GI50 (SK-MEL-28): 15.3 µM (inactive) | GI50 (U-251): 3.09 µM (inactive) | GI50 (HOP-92): 12.5 µM (inactive) | GI50 (RXF 393): 4.3 µM (inactive) | GI50 (UO-31): 9.29 µM (inactive) | GI50 (MDA-MB-435): 7.5 µM (inactive) | GI50 (SF-539): 11.2 µM (inactive) | GI50 (SK-MEL-5): 7.91 µM (inactive) | GI50 (SK-MEL-2): 16 µM (inactive) | GI50 (SF-295): 4.67 µM (inactive) | GI50 (PC-3): 3.76 µM (inactive) | GI50 (SNB-75): 3.52 µM (inactive) | GI50 (SNB-19): 18.2 µM (inactive) | GI50 (SK-OV-3): 18.4 µM (inactive) | GI50 (RPMI-8226): 3.07 µM (inactive) | GI50 (HL-60): 2.45 µM (inactive) | GI50 (EKVX): 9.82 µM (inactive) | GI50 (IGROV-1): 6.95 µM (inactive) | GI50 (OVCAR-8): 1.44 µM (inactive) | GI50 (OVCAR-3): 5.38 µM (inactive) | GI50 (DU-145): 12.1 µM (inactive) | GI50 (A549): 6.78 µM (inactive) | GI50 (NCI-H226): 46.1 µM (inactive) | GI50 (CCRF-CEM): 5.18 µM (inactive) | GI50 (NCI/ADR-RES): 16.8 µM (inactive) | GI50 (UACC-62): 5.24 µM (inactive) | GI50 (OVCAR-5): 39.7 µM (inactive) | GI50 (KM12): 2.83 µM (inactive)

CNc1ccc2c(c1)[C@@]1(C)c3ccccc3[C@@H](C2)N1C
GI50 (Hs-578T): 29.7 µM (inactive) | GI50 (SN12C): 17.4 µM (inactive) | GI50 (BT-549): 17.6 µM (inactive) | GI50 (MDA-MB-231): 23.2 µM (inactive) | GI50 (HOP-62): 42.1 µM (inactive) | GI50 (HCC 2998): 20.1 µM (inactive) | GI50 (UACC-257): 23.4 µM (inactive) | GI50 (T47D): 28.1 µM (inactive) | GI50 (A498): 26.4 µM (inactive) | GI50 (M14): 21.6 µM (inactive) | GI50 (K562): 23.2 µM (inactive) | GI50 (HCT-116): 16.1 µM (inactive) | GI50 (SR): 22.6 µM (inactive) | GI50 (NCI-H23): 22.6 µM (inactive) | GI50 (ACHN): 30.6 µM (inactive) | GI50 (SF-268): 44.4 µM (inactive) | GI50 (OVCAR-4): 30.7 µM (inactive) | GI50 (HT-29): 18.8 µM (inactive) | GI50 (MCF7): 29.7 µM (inactive) | GI50 (LOX IMVI): 19.5 µM (inactive) | GI50 (786-0): 17.4 µM (inactive) | GI50 (CAKI-1): 36.5 µM (inactive) | GI50 (SW-620): 33.7 µM (inactive) | GI50 (MOLT-4): 17.5 µM (inactive) | GI50 (NCI-H522): 15.7 µM (inactive) | GI50 (NCI-H460): 18.4 µM (inactive) | GI50 (MDA-N): 24.4 µM (inactive) | GI50 (HCT-15): 19 µM | GI50 (TK-10): 28.8 µM (inactive) | GI50 (U-251): 20.4 µM (inactive) | GI50 (HOP-92): 27.1 µM (inactive) | GI50 (Malme-3M): 28 µM (inactive) | GI50 (RXF 393): 20.3 µM (inactive) | GI50 (UO-31): 28.1 µM (inactive) | GI50 (MDA-MB-435): 19.1 µM (inactive) | GI50 (SK-MEL-5): 17.7 µM (inactive) | GI50 (SK-MEL-2): 21.6 µM (inactive) | GI50 (SF-295): 29.6 µM (inactive) | GI50 (PC-3): 29.9 µM (inactive) | GI50 (SNB-19): 37.8 µM (inactive) | GI50 (SK-OV-3): 43.8 µM (inactive) | GI50 (RPMI-8226): 15.7 µM (inactive) | GI50 (HL-60): 14.7 µM (inactive) | GI50 (EKVX): 32.7 µM (inactive) | GI50 (IGROV-1): 48.9 µM (inactive) | GI50 (OVCAR-3): 20.1 µM (inactive) | GI50 (DU-145): 39.5 µM (inactive) | GI50 (A549): 30.2 µM (inactive) | GI50 (CCRF-CEM): 20.4 µM (inactive) | GI50 (NCI/ADR-RES): 27.4 µM (inactive) | GI50 (UACC-62): 16.4 µM (inactive) | GI50 (OVCAR-5): 25.9 µM (inactive) | GI50 (KM12): 22.4 µM (inactive)
